# How the values were obtained:
# Type in all cases: functional
# Sus scrofa = organism: Sus scrofa; test: Porcine renal DHP-1 susceptibility.
# Escherichia coli = test: In vitro antimicrobial activity against Escherichia coli NIHJ JC2
# Pseudomonas aeruginosa [1] = test: In vitro antimicrobial activity against Pseudomonas aeruginosa AK 109
# Pseudomonas aeruginosa [2] = test: In vitro antimicrobial activity against ceftazidime resistant Pseudomonas aeruginosa AKR 17
# Rattus norvegicus = test: Epileptogenicity at 200 ug in rat intracerebroventricular assay.
# [3] = test system: Staphylococcus epidermidis; test: In vitro antimicrobial activity against methicillin resistant Staphylococcus epidermidis MB5181
# Staphylococcus aureus [4] = test: In vitro antimicrobial activity against Staphylococcus aureus 209P NIHJ JCI
# Staphylococcus aureus [5] = test: In vitro antimicrobial activity against methicillin resistant Staphylococcus aureus pMS520
Structure (SMILES),Susceptibility (Sus scrofa),MIC (Escherichia coli) [µg/mL],MIC (Pseudomonas aeruginosa [1]) [µg/mL],MIC (Pseudomonas aeruginosa [2]) [µg/mL],Epileptogenicity (Rattus norvegicus),MIC [3] [µg/mL],MIC (Staphylococcus aureus [4]) [µg/mL],MIC (Staphylococcus aureus [5]) [µg/mL]
C[C@@H](O)[C@H]1C(=O)N2C(C(=O)O)=C(S[C@@H]3CN[C@@H](c4ccc(CCN)cc4)C3)[C@H](C)[C@H]12,0.26,0.025,0.78,6.25,3,3.13,< 0.006,1.56
CNCc1ccc([C@H]2C[C@H](SC3=C(C(=O)O)N4C(=O)[C@H]([C@@H](C)O)[C@H]4[C@H]3C)CN2)s1,0.35,0.025,1.56,3.13,3,3.13,< 0.006,1.56
C/C(N)=N/Cc1ccc([C@H]2C[C@H](SC3=C(C(=O)O)N4C(=O)[C@H]([C@@H](C)O)[C@H]4[C@H]3C)CN2)cc1,0.25,0.05,1.56,6.25,–,0.78,< 0.006,1.56
C[C@@H](O)[C@H]1C(=O)N2C(C(=O)O)=C(S[C@@H]3CN[C@@H](c4ccc(CNCC(N)=O)cc4)C3)[C@H](C)[C@H]12,0.31,0.025,1.56,6.25,–,1.56,< 0.006,3.13
C[C@@H](O)[C@H]1C(=O)N2C(C(=O)O)=C(S[C@@H]3CN[C@@H](c4ccc([C@@H](N)CC(N)=O)cc4)C3)[C@H](C)[C@H]12,0.27,0.025,0.78,1.56,0,1.56,< 0.006,1.56
CNCc1ccc([C@H]2C[C@H](SC3=C(C(=O)O)N4C(=O)[C@H]([C@@H](C)O)[C@H]4[C@H]3C)CN2)o1,0.1,0.025,1.56,12.5,–,1.56,< 0.006,3.13
C[C@@H](O)[C@H]1C(=O)N2C(C(=O)O)=C(S[C@@H]3CN[C@@H](c4ccc([C@H](N)CC(N)=O)cc4)C3)[C@H](C)[C@H]12,0.27,0.025,1.56,1.56,0,1.56,< 0.006,1.56
C=CCC(N)c1ccc([C@H]2C[C@H](SC3=C(C(=O)O)N4C(=O)[C@H]([C@@H](C)O)[C@H]4[C@H]3C)CN2)cc1 (stereo partly drawn),0.29,0.025,1.56,12.5,0,3.13,< 0.006,1.56
C[C@@H](O)[C@H]1C(=O)N2C(C(=O)O)=C(S[C@@H]3CN[C@@H](c4ccc(C5(N)CC5)cc4)C3)[C@H](C)[C@H]12,0.32,0.025,3.13,6.25,0,1.56,< 0.006,1.56
C[C@@H](O)[C@H]1C(=O)N2C(C(=O)O)=C(S[C@@H]3CN[C@@H](c4ccc(CNCCO)cc4)C3)[C@H](C)[C@H]12,0.31,0.05,0.78,6.25,–,1.56,< 0.006,1.56
C[C@@H](O)[C@H]1C(=O)N2C(C(=O)O)=C(S[C@@H]3CN[C@@H](c4ccc(CN)cc4)C3)[C@H](C)[C@H]12,0.29,0.025,0.39,3.13,5,1.56,< 0.006,0.78
C[C@@H](O)[C@H]1C(=O)N2C(C(=O)O)=C(S[C@@H]3CN[C@@H](c4ccc(CN)s4)C3)[C@H](C)[C@H]12,0.84,0.025,0.78,3.13,5,1.56,< 0.006,1.56
CC(N)c1ccc([C@H]2C[C@H](SC3=C(C(=O)O)N4C(=O)[C@H]([C@@H](C)O)[C@H]4[C@H]3C)CN2)cc1 (stereo partly drawn),0.55,0.025,0.78,3.13,0,0.78,< 0.006,1.56
CNCc1ccc([C@H]2C[C@H](SC3=C(C(=O)O)N4C(=O)[C@H]([C@@H](C)O)[C@H]4[C@H]3C)CN2)cc1,0.25,0.025,0.39,1.56,0,1.56,< 0.006,0.78
CC(C)NCc1ccc([C@H]2C[C@H](SC3=C(C(=O)O)N4C(=O)[C@H]([C@@H](C)O)[C@H]4[C@H]3C)CN2)cc1,–,0.05,0.78,6.25,–,1.56,< 0.006,1.56
C[C@@H](O)[C@H]1C(=O)N2C(C(=O)O)=C(S[C@@H]3CN[C@@H](c4ccc(CN)c5ccccc45)C3)[C@H](C)[C@H]12,0.16,0.05,6.25,> 25,5,0.78,< 0.006,1.56
C[C@@H](O)[C@H]1C(=O)N2C(C(=O)O)=C(S[C@@H]3CN[C@@H](c4ccc(C(N)CCO)cc4)C3)[C@H](C)[C@H]12 (stereo partly drawn),–,0.05,1.56,12.5,0,6.25,< 0.006,3.13
C[C@@H](O)[C@H]1C(=O)N2C(C(=O)O)=C(SCCNC=N)C[C@H]12.O,1,0.1,1.56,3.13,5,50,< 0.006,50
C[C@@H](O)[C@H]1C(=O)N2C(C(=O)O)=C(S[C@@H]3CN[C@@H](c4ccc(C(N)C(N)=O)cc4)C3)[C@H](C)[C@H]12 (stereo partly drawn),0.32,0.025,1.56,6.25,0,3.13,< 0.006,3.13
CN[C@H](CC(C)C)C(=O)N[C@H]1C(=O)N[C@@H](CC(N)=O)C(=O)N[C@H]2C(=O)N[C@H]3C(=O)N[C@H](C(=O)N[C@H](C(=O)O)c4cc(O)cc(O)c4-c4cc3ccc4O)[C@H](O)c3ccc(c(Cl)c3)Oc3cc2cc(c3O[C@@H]2O[C@H](CO)[C@@H](O)[C@H](O)[C@H]2O[C@H]2C[C@](C)(N)[C@H](O)[C@H](C)O2)Oc2ccc(cc2Cl)[C@H]1O [VANCOMYCIN],–,> 100,> 100,> 100,–,–,0.39,0.78
C[C@@H](O)[C@H]1C(=O)N2C(C(=O)O)=C(S[C@@H]3CN[C@@H](c4ccc(C(C)(C)N)cc4)C3)[C@H](C)[C@H]12,0.37,0.05,1.56,6.25,0,1.56,< 0.006,1.56
C[C@@H](O)[C@H]1C(=O)N2C(C(=O)O)=C(S[C@@H]3CN[C@@H](c4ccc(CSC(=N)N)cc4)C3)[C@H](C)[C@H]12,0.3,0.05,1.56,12.5,3,1.56,< 0.006,1.56
C[C@@H](O)[C@H]1C(=O)N2C(C(=O)O)=C(S[C@@H]3CN[C@@H](c4cccc(CN)c4)C3)[C@H](C)[C@H]12,0.16,0.1,0.78,6.25,5,3.13,< 0.006,1.56
CCSCC(N)c1ccc([C@H]2C[C@H](SC3=C(C(=O)O)N4C(=O)[C@H]([C@@H](C)O)[C@H]4[C@H]3C)CN2)cc1 (stereo partly drawn),0.27,0.025,3.13,12.5,–,0.78,< 0.006,1.56
CCC(N)c1ccc([C@H]2C[C@H](SC3=C(C(=O)O)N4C(=O)[C@H]([C@@H](C)O)[C@H]4[C@H]3C)CN2)cc1 (stereo partly drawn),0.2,0.1,3.13,25,0,1.56,< 0.006,1.56
C[C@@H](O)[C@H]1C(=O)N2C(C(=O)O)=C(S[C@@H]3CN[C@@H](c4ccc(CN=C(N)N)cc4)C3)[C@H](C)[C@H]12,–,0.012,0.78,3.13,–,0.78,< 0.006,1.56
CCNCc1ccc([C@H]2C[C@H](SC3=C(C(=O)O)N4C(=O)[C@H]([C@@H](C)O)[C@H]4[C@H]3C)CN2)cc1,0.44,0.025,1.56,6.25,0,1.56,< 0.006,1.56

# Reference: ChEMBL document CHEMBL1132752, “Structure-activity relationships of trans-3,5-disubstituted pyrrolidinylthio-1beta-methylcarbapenems. Part 2: J-111,225, J-114,870, J-114,871 and related compounds” (2000)
